Where two headings read alike, the source gives them in different places.
Assays:
[1] = parameters: species or system SD rats; settings: rat, in vivo
Source text: Laboratory Animals: Adult Male SD Rats.
The plasma was collected and subjected to quick freezing.

[2] = rat, in vivo

Structure (SMILES)	bioavailability [1] [%]	bioavailability [2] [%]
CC[C@H](C)[C@@H]1NC(=O)[C@H](CCCNC(=N)N)NC(=O)[C@H](CC(=O)O)NC(=O)[C@H](CCSC)NC(=O)[C@H](CCCCN)NC(=O)[C@H](CCCNC(=N)N)NC(=O)CNC(=O)[C@H](Cc2ccccc2)NC(=O)[C@@H](NC(=O)CNC(=O)[C@H](CO)NC(=O)CNC(=O)[C@H](CCC(N)=O)NC(=O)[C@@H](NC(=O)[C@H](CCSC)NC(=O)[C@H](CCCCN)NC(=O)[C@@H]2CCCN2C(=O)[C@@H](N)CO)C(C)C)CSSC[C@@H](C(=O)N[C@@H](CCCCN)C(=O)N[C@H](C(=O)N[C@@H](CC(C)C)C(=O)N[C@@H](CCCN=C(N)N)C(=O)N[C@@H](CCCN=C(N)N)C(=O)N[C@@H](Cc2cnc[nH]2)C(=O)O)C(C)C)NC(=O)CNC(=O)[C@H](CC(C)C)NC(=O)CNC(=O)[C@H](CO)NC(=O)[C@H](CO)NC(=O)[C@H](CO)NC(=O)[C@H](CO)NC1=O [Nesiritide]	1.22	
CC[C@H](C)[C@H](NC(=O)[C@H](CO)NC(=O)[C@H](CCCCN)NC(=O)CNC(=O)[C@H](CCCCN)NC(=O)[C@H](CC(=O)O)NC(=O)[C@H](Cc1cnc[nH]1)NC(=O)[C@H](CC(C)C)NC(=O)[C@H](CC(C)C)NC(=O)[C@H](CCC(N)=O)NC(=O)[C@H](Cc1cnc[nH]1)NC(=O)[C@H](CCC(=O)O)NC(=O)[C@H](CO)NC(=O)[C@@H](NC(=O)[C@H](C)N)C(C)C)C(=O)N[C@@H](CCC(N)=O)C(=O)N[C@@H](CC(=O)O)C(=O)N[C@@H](CC(C)C)C(=O)N[C@@H](CCCNC(=N)N)C(=O)N[C@@H](CCCNC(=N)N)C(=O)N[C@@H](CCCNC(=N)N)C(=O)N[C@@H](CCC(=O)O)C(=O)N[C@@H](CC(C)C)C(=O)N[C@@H](CC(C)C)C(=O)N[C@@H](CCC(=O)O)C(=O)N[C@@H](CCCCN)C(=O)N[C@@H](CC(C)C)C(=O)N[C@@H](CC(C)C)C(=O)NC(C)(C)C(=O)N[C@@H](CCCCN)C(=O)N[C@@H](CC(C)C)C(=O)N[C@@H](Cc1cnc[nH]1)C(=O)N[C@H](C(=O)N[C@@H](C)C(N)=O)[C@@H](C)O [Abaloparatide]		1.66
